# Measured values from patent US20070196886A1 (priority 2004, published 2007).
# Where two headings read alike, the source gives them in different places.
# Assays:
# RNAP holoenzyme = RNAP holoenzyme (Escherichia coli, UniProt P0A8T7+P0A8V2); format: biochemical; details: for Vmax: FIG. 3E
# Description: (§1) Following 15 min at 37° C., 0.5 μl 1 mg/ml heparin was added, and, following a further 2 min at 37° C., RNA synthesis was initiated by addition of 2 μl 5 mM ApA and 125 μM (or 250 μM, 500 μM, and 1 mM) each of [α-^32P]UTP (0.6 Bq/fmol), ATP, CTP, GTP. Following 5 min at 37° C., reactions were terminated by addition of 10 μl 80% formamide, 10 mM EDTA, 0.04% bromophenol blue, and 0.04% xylene cyanol. Products were heated 10 min at 90° C., resolved by urea-PAGE (Sambrook and Russel, (2001)), and quantified using a storage-phosphor scanner (Storm 860; Molecular Dynamics). Identities of tri- and tetranucleotide abortive products were defined as in Borowiec and Gralla, (1985) J. Mol. Biol. 184, 587-598). Data were fit to full-competitive, partial-competitive, full-noncompetitive, partial-noncompetitive, full-uncompetitive, partial-uncompetitive, full-mixed, and partial-mixed models of inhibition using the Fit-To-Model feature of the SigmaPlot Enzyme Kinetics Module (SPSS).
# [1] = molecular target: T1, [Ile931]β′ RNAP holoenzyme (Escherichia coli, UniProt P0A8T7+P0A8V2, T931I); assay: Transcription assays with RNAP derivative bearing Thr931→Ile substitution in β′; format: biochemical
# T1 construct: [Ile931]β′ RNAP core and holoenzyme were prepared from strain 397c; hexahistidine (C); made in house; host or cells: E. coli strain 397c (rpoC^ts397) transformed with a pRL663 derivative
# Description: as §1
# [2] = test system: Strain DH5α transformed with pRL663 or a pRL663 derivative
substance,measurement,setting,value
Microcin J25 [MccJ25],mode of inhibition with respect to NTPs,RNAP holoenzyme,partial competitive
same,inhibition of formation of abortive products (3 nt and 4 nt RNA species),"RNAP holoenzyme; 100 μM MccJ25, 5 min at 37° C.",86%
same,inhibition of formation of the full-length product (26 nt RNA species),"RNAP holoenzyme; 100 μM MccJ25, 5 min at 37° C.",94%
same,effect of high NTP concentrations on inhibition,"RNAP holoenzyme; NTP 12.5, 25, 50, 100 μM",can overcome inhibition
same,Vmax,RNAP holoenzyme; at 1 μM MccJ25,1.9±0.4 mol/mol template/min
same,Vmax,RNAP holoenzyme; at 10 μM MccJ25,1.4±0.7 mol/mol template/min
same,inhibition upon substitution of residue 931 of the RNAP β′ subunit,[1],overcome completely
same,increase in MBC,[2]; 18 of 22 MccJ25-resistant mutants from random mutagenesis,≥ 50 fold
same,increase in MBC,[2]; all 22 MccJ25-resistant mutants from random mutagenesis,≥ 5 fold
same,MBC,"[2]; no substitution (wild-type β′), 2 h at 37° C.",0 µg/mL
same,MBC,"[2]; rpoB 543 Ala→Leu, 549 Asp→Tyr, multiple-substitution mutant",50 µg/mL
same,MBC,"[2]; rpoB 543 Ala→Pro, 546 Glu→Gly, multiple-substitution mutant",50 µg/mL
same,MBC,"[2]; rpoB 544 Gly→Asp, saturation mutagenesis",50 µg/mL
same,MBC,"[2]; rpoB 545 Phe→Leu, 546 Glu→Asp, multiple-substitution mutant",50 µg/mL
same,MBC,"[2]; rpoB 545 Phe→Ser, saturation mutagenesis",50 µg/mL
same,MBC,"[2]; rpoB 548 Arg→Gln, saturation mutagenesis",50 µg/mL
same,MBC,"[2]; rpoB 549 Asp→His, saturation mutagenesis",50 µg/mL
same,MBC,"[2]; rpoC 428 Thr→Asn, saturation mutagenesis",500 µg/mL
same,MBC,"[2]; rpoC 428 Thr→Ile, saturation mutagenesis",500 µg/mL
same,MBC,"[2]; rpoC 429 Leu→Gln, saturation mutagenesis",500 µg/mL
same,MBC,"[2]; rpoC 430 His→Tyr, saturation mutagenesis",500 µg/mL
same,MBC,"[2]; rpoC 493 Pro→Thr, 498 Pro→Thr, multiple-substitution mutant",100 µg/mL
same,MBC,"[2]; rpoC 498 Pro→Gln, saturation mutagenesis",1000 µg/mL
same,MBC,"[2]; rpoC 498 Pro→Leu, saturation mutagenesis",1000 µg/mL
same,MBC,"[2]; rpoC 503 Ser→Pro, saturation mutagenesis",500 µg/mL
same,MBC,"[2]; rpoC 503 Ser→Tyr, saturation mutagenesis",500 µg/mL
same,MBC,"[2]; rpoC 504 Gln→Arg, saturation mutagenesis",500 µg/mL
same,MBC,"[2]; rpoC 504 Gln→Glu, saturation mutagenesis",500 µg/mL
same,MBC,"[2]; rpoC 508 Leu→Val, saturation mutagenesis",50 µg/mL
same,MBC,"[2]; rpoC 680 Asn→Lys, saturation mutagenesis",500 µg/mL
same,MBC,"[2]; rpoC 684 Asp→Ala, saturation mutagenesis",1000 µg/mL
same,MBC,"[2]; rpoC 684 Asp→Glu, saturation mutagenesis",500 µg/mL
same,MBC,"[2]; rpoC 684 Asp→Tyr, saturation mutagenesis",500 µg/mL
same,MBC,"[2]; rpoC 684 Asp→Val, saturation mutagenesis",500 µg/mL
same,MBC,"[2]; rpoC 732 Gly→Asp, saturation mutagenesis",100 µg/mL
same,MBC,"[2]; rpoC 732 Gly→Asp, 733 Ser→Ala, multiple-substitution mutant",100 µg/mL
same,MBC,"[2]; rpoC 732 Gly→Asp, Gly→Thr, multiple-substitution mutant",500 µg/mL
same,MBC,"[2]; rpoC 733 Ser→Phe, saturation mutagenesis",100 µg/mL
same,MBC,"[2]; rpoC 733 Ser→Tyr, saturation mutagenesis",100 µg/mL
same,MBC,"[2]; rpoC 733 Ser→Val, saturation mutagenesis",500 µg/mL
same,MBC,"[2]; rpoC 733 Ser→Val, 734 Ala→Gly, multiple-substitution mutant",100 µg/mL
same,MBC,"[2]; rpoC 735 Ala→Δ, saturation mutagenesis",1000 µg/mL
same,MBC,"[2]; rpoC 736 Gln→Pro, saturation mutagenesis",500 µg/mL
same,MBC,"[2]; rpoC 738 Arg→Leu, saturation mutagenesis",50 µg/mL
same,MBC,"[2]; rpoC 744 Arg→His, saturation mutagenesis",50 µg/mL
same,MBC,"[2]; rpoC 744 Arg→Pro, saturation mutagenesis",50 µg/mL
same,MBC,"[2]; rpoC 748 Ala→Pro, saturation mutagenesis",100 µg/mL
same,MBC,"[2]; rpoC 775 Ser→Cys, saturation mutagenesis",500 µg/mL
same,MBC,"[2]; rpoC 776 Thr→Ile, saturation mutagenesis",500 µg/mL
same,MBC,"[2]; rpoC 777 His→Pro, saturation mutagenesis",500 µg/mL
same,MBC,"[2]; rpoC 777 His→Ser, 778 Gly→Ala, multiple-substitution mutant",500 µg/mL
same,MBC,"[2]; rpoC 777 His→Tyr, saturation mutagenesis",1000 µg/mL
same,MBC,"[2]; rpoC 779 Ala→Gly, saturation mutagenesis",500 µg/mL
same,MBC,"[2]; rpoC 779 Ala→Pro, saturation mutagenesis",500 µg/mL
same,MBC,"[2]; rpoC 779 Ala→Thr, saturation mutagenesis",1000 µg/mL
same,MBC,"[2]; rpoC 780 Arg→Cys, saturation mutagenesis",1000 µg/mL
